Results from the Kinase Knowledgebase extract (Sharma et al. 2016).

Tests used:
PIK3CG (human) = PIK3CG (human) (UniProt P48736); experiment: Inhibition of PIK3CG Kinase Activity
PIK3CB (Human) = PIK3CB (Human) (UniProt P42338); experiment: Inhibition of PIK3CB Kinase Activity
PIK3CD (Human) = PIK3CD (Human) (UniProt O00329); experiment: Inhibition of PIK3CD Kinase Activity
PIK3CA (human) = PIK3CA (human) (UniProt P42336); experiment: Inhibition of PIK3CA Kinase Activity

Measured: IC50

PIK3CB (Human), sequence (P42338 whole entry, looked up): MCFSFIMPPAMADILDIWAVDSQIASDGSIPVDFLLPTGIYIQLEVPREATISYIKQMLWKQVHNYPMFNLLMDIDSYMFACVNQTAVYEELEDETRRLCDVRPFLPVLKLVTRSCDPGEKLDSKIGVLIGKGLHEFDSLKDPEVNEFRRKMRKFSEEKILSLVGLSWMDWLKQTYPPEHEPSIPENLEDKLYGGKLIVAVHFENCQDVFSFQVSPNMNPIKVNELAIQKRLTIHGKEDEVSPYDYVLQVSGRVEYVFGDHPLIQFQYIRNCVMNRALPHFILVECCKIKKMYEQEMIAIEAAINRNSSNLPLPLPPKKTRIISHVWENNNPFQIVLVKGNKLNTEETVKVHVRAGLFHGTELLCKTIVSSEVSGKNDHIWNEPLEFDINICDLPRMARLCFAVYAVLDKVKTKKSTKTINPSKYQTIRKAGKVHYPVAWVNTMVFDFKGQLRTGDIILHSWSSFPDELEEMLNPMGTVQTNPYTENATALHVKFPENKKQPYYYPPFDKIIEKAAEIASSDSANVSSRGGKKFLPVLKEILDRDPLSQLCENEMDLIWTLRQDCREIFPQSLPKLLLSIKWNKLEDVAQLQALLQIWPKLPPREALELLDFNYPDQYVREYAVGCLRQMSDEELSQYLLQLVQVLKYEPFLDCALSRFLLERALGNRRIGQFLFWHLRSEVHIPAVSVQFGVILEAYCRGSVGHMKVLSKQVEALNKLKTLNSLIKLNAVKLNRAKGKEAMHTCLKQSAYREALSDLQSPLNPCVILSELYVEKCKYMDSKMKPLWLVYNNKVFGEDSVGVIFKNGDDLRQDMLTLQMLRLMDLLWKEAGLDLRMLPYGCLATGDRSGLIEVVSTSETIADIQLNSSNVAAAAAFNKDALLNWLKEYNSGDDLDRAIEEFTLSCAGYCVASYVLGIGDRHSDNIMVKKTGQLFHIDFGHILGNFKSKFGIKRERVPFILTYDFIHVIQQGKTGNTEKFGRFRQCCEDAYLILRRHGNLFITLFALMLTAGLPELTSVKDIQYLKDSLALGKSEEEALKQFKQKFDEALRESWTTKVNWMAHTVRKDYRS
PIK3CA (human), sequence (P42336 whole entry, looked up): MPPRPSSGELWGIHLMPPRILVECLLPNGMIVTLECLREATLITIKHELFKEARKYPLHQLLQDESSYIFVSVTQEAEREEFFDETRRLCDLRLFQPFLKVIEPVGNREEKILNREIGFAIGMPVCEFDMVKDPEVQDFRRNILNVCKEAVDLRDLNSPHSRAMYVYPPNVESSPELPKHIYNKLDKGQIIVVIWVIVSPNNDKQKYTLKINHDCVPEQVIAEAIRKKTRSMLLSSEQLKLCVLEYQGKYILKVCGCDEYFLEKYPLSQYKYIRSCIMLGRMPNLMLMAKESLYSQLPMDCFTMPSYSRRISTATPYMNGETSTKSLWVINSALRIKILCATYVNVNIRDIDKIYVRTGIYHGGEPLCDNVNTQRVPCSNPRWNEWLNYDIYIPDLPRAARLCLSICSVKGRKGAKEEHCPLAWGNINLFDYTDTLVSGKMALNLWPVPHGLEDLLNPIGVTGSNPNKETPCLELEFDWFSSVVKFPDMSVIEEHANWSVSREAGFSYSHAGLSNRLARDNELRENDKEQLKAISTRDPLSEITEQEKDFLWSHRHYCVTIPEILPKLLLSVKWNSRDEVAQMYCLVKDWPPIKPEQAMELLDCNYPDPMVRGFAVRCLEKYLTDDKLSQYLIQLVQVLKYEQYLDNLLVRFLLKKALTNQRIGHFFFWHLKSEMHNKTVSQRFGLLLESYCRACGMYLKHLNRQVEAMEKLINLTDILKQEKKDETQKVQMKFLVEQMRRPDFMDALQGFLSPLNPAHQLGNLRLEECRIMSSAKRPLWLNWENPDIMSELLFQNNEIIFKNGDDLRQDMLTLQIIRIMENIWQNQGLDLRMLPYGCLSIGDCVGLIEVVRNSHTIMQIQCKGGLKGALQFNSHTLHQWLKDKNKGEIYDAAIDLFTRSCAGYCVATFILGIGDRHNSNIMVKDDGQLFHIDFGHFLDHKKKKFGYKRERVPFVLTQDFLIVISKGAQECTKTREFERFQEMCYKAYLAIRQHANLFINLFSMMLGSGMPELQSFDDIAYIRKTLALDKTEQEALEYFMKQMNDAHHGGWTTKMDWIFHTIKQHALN
PIK3CG (human), sequence (P48736 whole entry, looked up): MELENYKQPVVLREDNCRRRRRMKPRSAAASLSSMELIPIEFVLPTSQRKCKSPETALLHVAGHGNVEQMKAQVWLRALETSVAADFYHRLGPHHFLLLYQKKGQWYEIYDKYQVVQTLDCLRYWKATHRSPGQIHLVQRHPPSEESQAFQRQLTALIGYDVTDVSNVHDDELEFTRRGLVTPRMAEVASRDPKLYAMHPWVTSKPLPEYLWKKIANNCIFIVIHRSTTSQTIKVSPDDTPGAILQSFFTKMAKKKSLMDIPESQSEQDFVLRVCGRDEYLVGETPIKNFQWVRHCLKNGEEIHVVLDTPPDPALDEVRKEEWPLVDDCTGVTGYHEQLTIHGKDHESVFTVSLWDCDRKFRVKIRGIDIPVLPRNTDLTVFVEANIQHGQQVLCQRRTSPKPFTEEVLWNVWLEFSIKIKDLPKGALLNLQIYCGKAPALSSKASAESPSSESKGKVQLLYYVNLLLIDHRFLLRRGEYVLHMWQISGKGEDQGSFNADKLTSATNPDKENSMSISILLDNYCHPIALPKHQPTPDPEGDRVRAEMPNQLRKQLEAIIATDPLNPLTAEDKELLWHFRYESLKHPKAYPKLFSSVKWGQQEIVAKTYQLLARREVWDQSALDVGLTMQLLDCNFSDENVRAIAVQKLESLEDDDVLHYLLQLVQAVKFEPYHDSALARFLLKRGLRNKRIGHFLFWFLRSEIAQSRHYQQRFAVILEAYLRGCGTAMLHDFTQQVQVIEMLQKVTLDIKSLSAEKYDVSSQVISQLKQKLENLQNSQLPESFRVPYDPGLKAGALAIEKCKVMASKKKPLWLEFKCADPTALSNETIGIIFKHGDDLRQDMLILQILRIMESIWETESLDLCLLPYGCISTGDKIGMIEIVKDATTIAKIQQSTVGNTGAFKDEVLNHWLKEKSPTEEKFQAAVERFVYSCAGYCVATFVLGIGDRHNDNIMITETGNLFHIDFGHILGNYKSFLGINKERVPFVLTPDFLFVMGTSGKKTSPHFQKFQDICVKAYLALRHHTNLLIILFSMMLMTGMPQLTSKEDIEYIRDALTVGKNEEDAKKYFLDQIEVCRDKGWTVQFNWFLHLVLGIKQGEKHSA
PIK3CD (Human), sequence (O00329 whole entry, looked up): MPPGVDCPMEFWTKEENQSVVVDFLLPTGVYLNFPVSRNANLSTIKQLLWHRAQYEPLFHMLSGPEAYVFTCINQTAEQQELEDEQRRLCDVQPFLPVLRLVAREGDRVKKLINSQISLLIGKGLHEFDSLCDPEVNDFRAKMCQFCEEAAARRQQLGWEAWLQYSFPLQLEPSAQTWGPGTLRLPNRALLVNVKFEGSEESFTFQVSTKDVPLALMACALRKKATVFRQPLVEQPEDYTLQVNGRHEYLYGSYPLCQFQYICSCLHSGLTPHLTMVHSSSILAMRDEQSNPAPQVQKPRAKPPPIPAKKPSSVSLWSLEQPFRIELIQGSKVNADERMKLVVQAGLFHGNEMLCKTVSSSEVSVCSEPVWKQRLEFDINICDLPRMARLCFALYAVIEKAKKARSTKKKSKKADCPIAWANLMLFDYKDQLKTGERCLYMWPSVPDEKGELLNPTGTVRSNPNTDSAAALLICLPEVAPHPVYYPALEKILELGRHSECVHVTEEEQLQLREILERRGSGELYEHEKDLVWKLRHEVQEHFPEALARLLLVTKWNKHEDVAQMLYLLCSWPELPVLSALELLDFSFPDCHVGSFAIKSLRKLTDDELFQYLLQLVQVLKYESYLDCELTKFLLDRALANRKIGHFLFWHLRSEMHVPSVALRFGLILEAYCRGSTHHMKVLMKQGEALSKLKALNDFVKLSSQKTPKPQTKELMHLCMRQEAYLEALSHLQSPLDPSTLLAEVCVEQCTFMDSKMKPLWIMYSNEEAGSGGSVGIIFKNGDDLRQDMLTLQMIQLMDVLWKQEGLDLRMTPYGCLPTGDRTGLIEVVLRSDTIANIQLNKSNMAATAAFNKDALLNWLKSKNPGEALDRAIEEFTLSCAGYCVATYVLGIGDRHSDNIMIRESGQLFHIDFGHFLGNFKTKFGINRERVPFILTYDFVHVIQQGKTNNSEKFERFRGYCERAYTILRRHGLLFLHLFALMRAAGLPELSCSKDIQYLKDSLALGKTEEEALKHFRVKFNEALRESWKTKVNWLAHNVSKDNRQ

Nc1ncc(-c2nc(N3CCOCC3)nc3c2cnn3C2CCOCC2)cn1
< 1 µM: all assays above

CC(C)(O)Cn1ncc2c(-c3cnc(N)nc3)nc(N3CCOCC3)nc21
< 1 µM: all assays above

CN1CCN(C(=O)N2CCC(n3ncc4c(-c5cnc(N)nc5)nc(N5CCOCC5)nc43)CC2)CC1
< 1 µM: all assays above
